The numbers were not newly measured in patent publication US10293048B2, “Pharmaceutical compositions comprising boronic acid compounds” (DR. REDDY'S LABORATORIES LIMITED, priority 2012, dated 2019), which cites them from elsewhere.

Molecules are shown by their SMILES. Read-outs that look alike come from different tables or passages of the source.

For this data set the following is noted: 1.3 mM in 2% ethyl alcohol/98% normal saline pH 2.8, 25° C., 14 days.

On to `CC(C)C[C@H](NC(=O)[C@H](Cc1ccccc1)NC(=O)c1cnccn1)B(O)O` [bortezomib, [(1R)-3-methyl-1-[[(2S)-1-oxo-3-phenyl-2-[(pyrazinylcarbonyl)amino]propyl]amino]butyl]boronic acid], for which the degradation reads like this: (containing 0.1% of ascorbic acid) 21.8%; (no ascorbic acid) 5.9%.
